From PMC8963254, “Effects of Lysine N-ζ-Methylation in Ultrashort Tetrabasic Lipopeptides (UTBLPs) on the Potentiation of Rifampicin, Novobiocin, and Niclosamide in Gram-Negative Bacteria” (Antibiotics, 2022)
Read-outs that look alike come from different tables or passages of the source.

How the values were obtained:
[1] = test system: E. cloacae 118564; assay: microbe, parasite or virus in culture; type: cell-based, Enterobacter cloacae; conditions: 118564, 18 h
Method in brief: (§1)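 Minimum inhibitory concentration came from a CLSI broth dilution assay: 18 h at 37 °C, inoculum 5 × 10^5 CFU/mL final.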

[2] = test system: P. aeruginosa PA262-101856; type: cell-based, Pseudomonas aeruginosa; conditions: for MICUTBLP: UTBLP alone
Method in brief: (§2)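 Values derive from a two-agent checkerboard with an 18 h, 37 °C incubation. FICI cut-offs: ≤0.5 synergy, 0.5–4 additive, >4 antagonism.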

[3] = test system: P. aeruginosa PA259-96196; type: cell-based, Pseudomonas aeruginosa; conditions: for MICUTBLP: UTBLP alone
Method in brief: as §2

[4] = test system: P. aeruginosa PAO1; type: cell-based, Pseudomonas aeruginosa; conditions: for MICUTBLP: UTBLP alone
Method in brief: as §2

[5] = test system: A. baumannii AB027; assay: microbe, parasite or virus in culture; type: cell-based, Acinetobacter baumannii; conditions: AB027, 18 h
Method in brief: as §1

[6] = test system: A. baumannii AB92247; assay: microbe, parasite or virus in culture; type: cell-based, Acinetobacter baumannii; conditions: AB92247, 18 h
Method in brief: as §1

[7] = test system: MSSE 81388; type: cell-based, Staphylococcus epidermidis
Method in brief: as §2

[8] = test system: MRSE 61589; type: cell-based, Staphylococcus epidermidis
Method in brief: as §2

[9] = test system: A. baumannii ATCC 17978; type: cell-based, Acinetobacter baumannii; conditions: ATCC 17978, 18 h
Protocol: (§3) The in vitro antibacterial activity of the UTBLPs was assessed against wild-type and clinically isolated bacterial strains. To obtain the MIC of the compounds, the microbroth dilution susceptibility assay was performed according to the Clinical and Laboratory Standards Institute (CLSI, Wayne, PA, USA) guidelines and as previously described. Briefly, the compounds at varying concentrations were incubated with bacterial inoculum (5 × 10^5 CFU/mL final concentration) at 37 °C for 18 h. Growth in the form of turbidity was confirmed using an EMax Plus microplate reader (Molecular Devices, San Jose, CA, USA) at 590 nm.

[10] = test system: E. coli 94393; assay: microbe, parasite or virus in culture; type: cell-based, Escherichia coli; conditions: 94393, 18 h
Method in brief: as §1

[11] = test system: E. coli 94474; assay: microbe, parasite or virus in culture; type: cell-based, Escherichia coli; conditions: 94474, 18 h
Method in brief: as §1

[12] = test system: E. coli 94474; type: cell-based, Escherichia coli; conditions: for MICUTBLP: UTBLP alone
Method in brief: as §2

[13] = test system: A. baumannii AB027; type: cell-based, Acinetobacter baumannii; conditions: for MICUTBLP: UTBLP alone
Method in brief: as §2

[14] = test system: A. baumannii ATCC 17978; type: cell-based, Acinetobacter baumannii; conditions: for MICUTBLP: UTBLP alone
Method in brief: as §2

[15] = test system: A. baumannii 92247; type: cell-based, Acinetobacter baumannii; conditions: for MICUTBLP: UTBLP alone
Method in brief: as §2

[16] = test system: K. pneumoniae 113250; assay: microbe, parasite or virus in culture; type: cell-based, Klebsiella pneumoniae; conditions: 113250, 18 h
Method in brief: as §1

[17] = test system: E. faecalis ATCC 29212; type: cell-based, Enterococcus faecalis
Method in brief: as §2

[18] = test system: P. aeruginosa PAO1; type: cell-based, Pseudomonas aeruginosa; conditions: PAO1, 18 h
Protocol: as §3

[19] = UTBLP in combination with novobiocin
[20] = UTBLP in combination with rifampicin
[21] = novobiocin in combination with the UTBLP
[22] = rifampicin in combination with the UTBLP
[23] = UTBLP in combination with chloramphenicol
[24] = UTBLP in combination with niclosamide
[25] = chloramphenicol in combination with the UTBLP
[26] = niclosamide in combination with the UTBLP
[27] = UTBLP alone, plate with chloramphenicol

MIC [1]: > 128 µg/mL
MICUTBLP ([2]; plate with novobiocin): > 128 µg/mL
MICUTBLP ([2]; plate with rifampicin): > 128 µg/mL
MICUTBLP [MICcombo] [2, 19]: 8 µg/mL
MICUTBLP [MICcombo] [2, 20]: 0.25 µg/mL
MICantibiotic [MICcombo] [2, 21]: 1024 µg/mL
MICantibiotic [MICcombo] [2, 22]: 512 µg/mL
MICUTBLP ([3]; plate with novobiocin): > 128 µg/mL
MICUTBLP ([3]; plate with rifampicin): > 128 µg/mL
MICUTBLP [MICcombo] [3, 19]: 0.25 µg/mL
MICUTBLP [MICcombo] [3, 20]: 16 µg/mL
MICantibiotic [MICcombo] [3, 21]: 2048 µg/mL
MICantibiotic [MICcombo] [3, 22]: 16 µg/mL
MICUTBLP ([4]; plate with chloramphenicol): > 128 µg/mL
MICUTBLP ([4]; plate with niclosamide): > 128 µg/mL
MICUTBLP ([4]; plate with novobiocin): > 128 µg/mL
MICUTBLP ([4]; plate with rifampicin): > 128 µg/mL
MICUTBLP [MICcombo] [4, 23]: 8 µg/mL
MICUTBLP [MICcombo] [4, 24]: 0.25 µg/mL
MICUTBLP [MICcombo] [4, 19]: 16 µg/mL
MICUTBLP [MICcombo] [4, 20]: 0.25 µg/mL
MICantibiotic [MICcombo] [4, 25]: 8 µg/mL
MICantibiotic [MICcombo] [4, 26]: 1024 µg/mL
MICantibiotic [MICcombo] [4, 21]: 512 µg/mL
MICantibiotic [MICcombo] [4, 22]: 16 µg/mL
MIC [5]: > 128 µg/mL
MIC [6]: > 128 µg/mL
MICUTBLP [7, 27]: > 128 µg/mL
MICUTBLP [MICcombo] [7, 23]: 0.25 µg/mL
MICchloramphenicol [MICcombo] [7, 25]: 8 µg/mL
MICUTBLP [8, 27]: > 128 µg/mL
MICUTBLP [MICcombo] [8, 23]: 0.25 µg/mL
MICchloramphenicol [MICcombo] [8, 25]: 16 µg/mL
MIC [9]: >128 µg/mL
MIC [10]: > 128 µg/mL
MIC [11]: > 128 µg/mL
MICUTBLP ([12]; plate with novobiocin): > 128 µg/mL
MICUTBLP ([12]; plate with rifampicin): > 128 µg/mL
MICUTBLP [MICcombo] [12, 19]: 16 µg/mL
MICUTBLP [MICcombo] [12, 20]: 16 µg/mL
MICantibiotic [MICcombo] [12, 21]: 32 µg/mL
MICantibiotic [MICcombo] [12, 22]: 2 µg/mL
MICUTBLP ([13]; plate with novobiocin): > 128 µg/mL
MICUTBLP ([13]; plate with rifampicin): > 128 µg/mL
MICUTBLP [MICcombo] [13, 19]: 16 µg/mL
MICUTBLP [MICcombo] [13, 20]: 4 µg/mL
MICantibiotic [MICcombo] [13, 21]: 2 µg/mL
MICantibiotic [MICcombo] [13, 22]: 0.5 µg/mL
MICUTBLP ([14]; plate with chloramphenicol): > 128 µg/mL
MICUTBLP ([14]; plate with niclosamide): > 128 µg/mL
MICUTBLP ([14]; plate with novobiocin): > 128 µg/mL
MICUTBLP ([14]; plate with rifampicin): > 128 µg/mL
MICUTBLP [MICcombo] [14, 23]: 16 µg/mL
MICUTBLP [MICcombo] [14, 24]: 0.25 µg/mL
MICUTBLP [MICcombo] [14, 19]: 8 µg/mL
MICUTBLP [MICcombo] [14, 20]: 8 µg/mL
MICantibiotic [MICcombo] [14, 25]: 64 µg/mL
MICantibiotic [MICcombo] [14, 26]: 1024 µg/mL
MICantibiotic [MICcombo] [14, 21]: 1 µg/mL
MICantibiotic [MICcombo] [14, 22]: 0.5 µg/mL
MICUTBLP ([15]; plate with novobiocin): > 128 µg/mL
MICUTBLP ([15]; plate with rifampicin): > 128 µg/mL
MICUTBLP [MICcombo] [15, 19]: 8 µg/mL
MICUTBLP [MICcombo] [15, 20]: 16 µg/mL
MICantibiotic [MICcombo] [15, 21]: 1 µg/mL
MICantibiotic [MICcombo] [15, 22]: 0.25 µg/mL
MIC [16]: > 128 µg/mL
MICUTBLP [17, 27]: > 128 µg/mL
MICUTBLP [MICcombo] [17, 23]: 0.25 µg/mL
MICchloramphenicol [MICcombo] [17, 25]: 8 µg/mL
MIC [18]: >128 µg/mL
SMILES: CCCCCCCC(=O)N[C@@H](CCCCN(C)C)C(=O)NCCCN(CCCNC(=O)[C@H](CCCCN(C)C)NC(=O)CCCCCCC)CC(=O)N[C@@H](CCCCN(C)C)C(N)=O [UTBLP 3]
Interpretation ([2]; UTBLP + novobiocin): Additive (0.5 < x ≤ 4 is additive)
Interpretation ([2]; UTBLP + rifampicin): Additive (0.5 < x ≤ 4 is additive)
Interpretation ([3]; UTBLP + novobiocin): Additive (0.5 < x ≤ 4 is additive)
Interpretation ([3]; UTBLP + rifampicin): Additive (0.5 < x ≤ 4 is additive)
Interpretation ([4]; UTBLP + chloramphenicol): Additive (0.5 < x ≤ 4 is additive)
Interpretation ([4]; UTBLP + niclosamide): Additive (0.5 < x ≤ 4 is additive)
Interpretation ([4]; UTBLP + novobiocin): Additive (0.5 < x ≤ 4 is additive)
Interpretation ([4]; UTBLP + rifampicin): Additive (0.5 < x ≤ 4 is additive)
Interpretation ([7]; UTBLP + chloramphenicol): Additive (0.5 < x ≤ 4 is additive)
Interpretation ([8]; UTBLP + chloramphenicol): Additive (0.5 < x ≤ 4 is additive)
Interpretation ([12]; UTBLP + novobiocin): Synergy (FICI ≤ 0.5 is synergistic)
Interpretation ([12]; UTBLP + rifampicin): Additive (0.5 < x ≤ 4 is additive)
Interpretation ([13]; UTBLP + novobiocin): Synergy (FICI ≤ 0.5 is synergistic)
Interpretation ([13]; UTBLP + rifampicin): Additive (0.5 < x ≤ 4 is additive)
Interpretation ([14]; UTBLP + chloramphenicol): Additive (0.5 < x ≤ 4 is additive)
Interpretation ([14]; UTBLP + niclosamide): Additive (0.5 < x ≤ 4 is additive)
Interpretation ([14]; UTBLP + novobiocin): Synergy (FICI ≤ 0.5 is synergistic)
Interpretation ([14]; UTBLP + rifampicin): Synergy (FICI ≤ 0.5 is synergistic)
Interpretation ([15]; UTBLP + novobiocin): Synergy (FICI ≤ 0.5 is synergistic)
Interpretation ([15]; UTBLP + rifampicin): Synergy (FICI ≤ 0.5 is synergistic)
Interpretation ([17]; UTBLP + chloramphenicol): Additive (0.5 < x ≤ 4 is additive)
